Columns and labels:
[1] = molecular target: T1, rat GPR14 (U-II receptor) (Rattus norvegicus, UniProt P49684); settings: agonist peptide, CHO cells transfected with rat GPR14; read-out: FLIPR EC50; cited from earlier work
T1 construct: expressed in transfected cells
T1 sequence (P49684 1-386): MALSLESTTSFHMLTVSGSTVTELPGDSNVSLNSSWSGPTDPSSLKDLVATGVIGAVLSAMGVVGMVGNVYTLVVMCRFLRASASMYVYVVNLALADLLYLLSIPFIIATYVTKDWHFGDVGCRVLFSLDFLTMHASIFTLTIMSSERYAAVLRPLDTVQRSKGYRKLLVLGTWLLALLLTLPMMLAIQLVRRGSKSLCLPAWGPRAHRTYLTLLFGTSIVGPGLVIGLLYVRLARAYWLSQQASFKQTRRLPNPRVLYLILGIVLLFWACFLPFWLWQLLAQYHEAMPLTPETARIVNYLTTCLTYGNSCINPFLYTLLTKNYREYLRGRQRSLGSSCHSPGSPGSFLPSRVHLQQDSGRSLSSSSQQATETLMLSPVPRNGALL

rU-II receptor = molecular target: T2, rU-II receptor (Rattus norvegicus, UniProt P49684); settings: agonist peptide; cited from earlier work
T2 sequence (P49684 1-386): T1 sequence (P49684 1-386)

[2] = molecular target: T3, Human UII receptor, 6D9 human rhabdomyosarcoma cells (Homo sapiens, UniProt Q9UKP6); assay: Human UII Calcium Mobilization Assay; type: cell-based; settings: average value, FLIPR TETRA, read-out: Human UII Ca^+ Mobilization Average IC50
T3 construct: 6D9: isolated by dilution subcloning of RMS13 cells, ATCC® Number: CRL-2061; host or cells: 6D9 human rhabdomyosarcoma cells (subclone of RMS13)
T3 sequence (Q9UKP6 1-389): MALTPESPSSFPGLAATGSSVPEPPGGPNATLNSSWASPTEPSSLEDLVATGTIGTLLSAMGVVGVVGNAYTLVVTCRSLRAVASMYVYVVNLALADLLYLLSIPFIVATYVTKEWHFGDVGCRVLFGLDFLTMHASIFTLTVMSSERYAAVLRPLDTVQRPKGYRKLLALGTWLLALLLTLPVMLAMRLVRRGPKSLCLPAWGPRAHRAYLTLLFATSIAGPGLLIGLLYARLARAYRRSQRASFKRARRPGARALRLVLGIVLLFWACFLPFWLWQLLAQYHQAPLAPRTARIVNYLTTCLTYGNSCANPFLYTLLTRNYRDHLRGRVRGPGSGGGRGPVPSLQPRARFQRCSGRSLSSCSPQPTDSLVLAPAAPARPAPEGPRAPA
In short: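 FLIPR calcium responses were recorded for 4 minutes after room-temperature addition of test antagonist and U-II, in dye-loaded human 6D9 cells (37° C, 45 min; HBSS/HEPES with probenecid 1.25 mM). Compounds serially diluted in HBSS/HEPES, up to 0.1% DMSO; curves gave IC50 and EC50.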

[3] = molecular target: T1, rat GPR14 (U-II receptor); assay: Rat UII Calcium Mobilization FLIPR Assay; type: cell-based; settings: average value for the compound tested; read-out: Rat UII FLIPR Average IC50
In short: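 Fluorescent calcium signals were recorded at room temperature (23° C) by FLIPR. Stable rat U-II receptor CHO lines had been dye-loaded for 1 h at 37° C in pH 7.4 HBSS containing 20 mM HEPES, 0.1% BSA and 2.5 mM probenecid.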

[4] = molecular target: T4, endogenous human UII receptor (Homo sapiens, UniProt Q9UKP6); assay: Human Radioligand Binding Assay ((^125I)-U-II binding to human skeletal muscle myoblasts)
T4 sequence (Q9UKP6 1-389): T3 sequence (Q9UKP6 1-389)

[5] = test system: isolated arterial rings of rats; settings: read-out: EC50 of contraction; cited from earlier work
[6] = test system: isolated arterial rings of humans; settings: read-out: EC50 of contraction; cited from earlier work

IC50 [2]	IC50 [3]	Ki [4]	Molecule	EC50 [1]	Ki (rU-II receptor)	EC50 [5]	EC50 [6]
			Acetyl-cyclic[Cys-Phe-Trp-Lys-(2-Nal)-Cys]-NH2 [(Ac)—CFWK(2-NaI)C—NH2, agonist cyclic peptide used at 1 nM to induce Ca2+ mobilization in the rat UII FLIPR assay]	0.54 ± 0.2 nM	0.12 ± 0.05 nM		
1900 nM	290 nM	> 300 nM	CCN1CCN(c2cccc3c2C(=O)N(C(c2cccc(NCc4ccccc4)c2)c2ccc(OC)c(OC)c2)C3=O)CC1 (stereo not shown) [Cpd 230, 2-[(3-benzylamino-phenyl)-(3,4-dimethoxy-phenyl)-methyl]-4-(4-ethyl-piperazin-1-yl)-isoindole-1,3-dione]				
300 nM	28 nM	320 nM	COc1ccc([C@@H](CCCNS(=O)(=O)c2sc(C)nc2C)N2C(=O)c3cccc(N4CCN([C@H](C)c5ccccc5)CC4)c3C2=O)cc1OC [Cpd 124, (R)-2,4-dimethyl-thiazole-5-sulfonic acid (4-(3,4-dimethoxy-phenyl)-4-{1,3-dioxo-4-[4-(1R)-(1-phenyl-ethyl)-piperazin-1-yl]-1,3-dihydro-isoindol-2-yl}-butyl)-amide]				
1100 nM	24 nM	43 nM	COc1ccc([C@@H](CCCNC(=O)C2CCCC2)N2C(=O)c3cccc(N4CCN([C@H](C)c5ccccc5)CC4)c3C2=O)cc1OC [Cpd 179, (R)-cyclopentanecarboxylic acid (4-(3,4-dimethoxy-phenyl)-4-{1,3-dioxo-4-[4-(1R)-(1-phenyl-ethyl)-piperazin-1-yl]-1,3-dihydro-isoindol-2-yl}-butyl)-amide]				
			AGTAD-cyclo(CFWKYC)—V [Goby U-II, Urotensin-II isolated from the urophysis of the goby fish (Gillichthys mirabilis) as a 12-mer]			< 1 nM	< 1 nM
1500 nM	25 nM	140 nM	COc1ccc([C@@H](CCNS(=O)(=O)Cc2ccccc2)N2C(=O)c3cccc(N4CCN([C@H](C)c5ccccc5)CC4)c3C2=O)cc1OC [Cpd 222, (R)-N-(3-(3,4-dimethoxy-phenyl)-3-{1,3-dioxo-4-[4-(1R)-(1-phenyl-ethyl)-piperazin-1-yl]-1,3-dihydro-isoindol-2-yl}-propyl)-C-phenyl-methanesulfonamide]				

Reference: US8193191B2, “Urotensin II receptor antagonists” (Janssen Pharmaceutica N.V., priority 2006, dated 2012)
